Assay: wn = mass fraction of the nth substance listed
Details: Liquid; for mass density: Vibrating tube method; for viscosity: Falling or rolling sphere viscometry

CN(C)CCO [2-(N,N-dimethylamino)ethanol] + O
Details	mass density, w1 = 0.1005 [kg/m3]	mass density, w1 = 0.202 [kg/m3]	mass density, w1 = 0.3005 [kg/m3]	mass density, w1 = 0.3995 [kg/m3]	viscosity, w1 = 0.1005 [mPa·s]	viscosity, w1 = 0.202 [mPa·s]	viscosity, w1 = 0.3005 [mPa·s]	viscosity, w1 = 0.3995 [mPa·s]
353.15 K, 60000 kPa	–	–	975.6	967.5	–	–	–	–
353.15 K, 70000 kPa	993.6	986.6	979.3	971.2	–	–	–	–
353.15 K, 80000 kPa	997.4	990.1	983	975.1	0.4999	0.6779	0.9395	1.281
353.15 K, 90000 kPa	1000.9	993.8	986.6	978.7	–	–	–	–
353.15 K, 100000 kPa	1004.6	997.3	990.1	982.4	0.5096	0.6942	0.9726	1.337
353.15 K, 110000 kPa	1008.1	1000.7	993.6	985.9	–	–	–	–
353.15 K, 120000 kPa	1011.7	1004.1	997	989.3	–	–	–	–
353.15 K, 130000 kPa	1014.9	1007.5	1000.3	992.7	–	–	–	–
353.15 K, 140000 kPa	1018.3	1010.8	1003.5	996	–	–	–	–
373.15 K, 100 kPa	950.7	942.4	933.3	923.1	–	–	–	–
373.15 K, 500 kPa	950.9	942.7	933.6	923.4	–	–	–	–
373.15 K, 1000 kPa	951.2	942.9	933.9	923.6	–	–	–	–
373.15 K, 2000 kPa	951.7	943.4	934.4	924.2	–	–	–	–
373.15 K, 5000 kPa	953	944.8	935.9	925.8	0.359	0.4516	0.5788	0.7177
373.15 K, 10000 kPa	955.4	947.2	938.4	928.4	0.3614	0.4543	0.5834	0.7267
373.15 K, 15000 kPa	957.7	949.5	940.8	931.1	0.3638	0.4578	0.5895	0.7398
373.15 K, 20000 kPa	959.9	951.8	943.2	933.6	0.3659	0.4624	0.5971	0.7525
373.15 K, 25000 kPa	–	–	–	–	0.3691	0.4659	0.602	0.7633

— the NIST ThermoML archive (doi:10.1016/j.jct.2017.05.001)
